Values after ≈ are worked out from the molar mass of the structure shown.
Tests used:
[1] = Cytotoxicity MTT assay (HELAM); assay type: cell-based, Human; conditions: human, HelaM cells, read-out: HELAM (222.125) CC50
Method: Cytotoxicity of the compounds was evaluated using the MTT assay. Human HelaM cells grown in 96-well plates were exposed to serial dilutions of the tested compounds (final volume of 0.2 ml) and incubated for 72 hours at 37° C. and 5% CO2. Inhibitors are typically varied over the range of 25 to 0.8 μM. The final DMSO concentration in the assay is 0.5%. MTT (3-(4,5-Dimethylthiazol-2-yl)-2,5-diphenyltetrazolium bromide, a tetrazole) was added and reduced to purple formazan only in living cells. Solubilization of the formazan crystals was achieved by adding 100 μl 2-propanol. Cell viability was determined by measuring the absorbance of the reduced formazan, giving a purple color, at 540 nm and 690 nm. The absorbance measured at 690 nm was automatically subtracted from the absorbance at 540 nm, to eliminate the effects of non-specific absorption. The percent cytotoxicity achieved by the compounds was calculated according to standard methods. Cytotoxicity is reported as CC50, the concentration that causes a 50% reduction in cell viability.
The results are depicted in the table(s) below (HELAM).

[2] = target: T1, S. aureus ATCC 29213 FabI (Staphylococcus aureus, UniProt Q6GI75); assay: Staphylococcus aureus FabI enzyme inhibition assay; assay type: biochemical; conditions: read-out: FabI (300.235) IC50 (converted)
T1 sequence (Q6GI75 1-256): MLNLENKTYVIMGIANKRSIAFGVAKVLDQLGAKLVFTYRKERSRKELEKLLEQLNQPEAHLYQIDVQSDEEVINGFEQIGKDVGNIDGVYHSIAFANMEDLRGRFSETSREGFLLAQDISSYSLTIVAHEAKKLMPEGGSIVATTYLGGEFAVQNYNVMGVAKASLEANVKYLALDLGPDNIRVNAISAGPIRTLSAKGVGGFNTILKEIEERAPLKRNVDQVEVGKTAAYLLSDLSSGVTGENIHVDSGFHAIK
Method: Y.1 FabI Enzyme Inhibition: Staphylococcus aureus FabI Enzyme Inhibition Assay
FabI enzyme inhibition assays were carried out in half-area, 384-well microtitre plates. Compounds were evaluated in 40-μl assay mixtures containing 100 mM NaADA, pH 6.5 (ADA=N-[2-acetamido]-2iminodiacetic acid), 250 μM crotonoyl-CoA, 625 μM NADH and 50 μg/ml S. aureus ATCC 29213 FabI. Inhibitors were typically varied over the range of 50 to 0.39 μM. The reaction mixtures were incubated for 30 minutes at room temperature and the reaction was stopped by adding 200 mM Tris buffer (pH 9.0) to create a pH-shift. The consumption of NADH was monitored by measuring the change in absorbance at […]. By comparing sample readings to those of negative (absence of compound) and positive (absence of enzyme) controls, the percent inhibition of enzymatic activity of the compounds was determined A best-fit curve is fitted by a minimum of squares method. From this an IC50-value (expressed in μg/ml), resulting in 50% inhibition of enzymatic activity, was obtained.

[3] = test system: Staphylococcus aureus ATCC 29213; assay: Antibacterial susceptibility testing, IC90 determination (STA); assay type: cell-based; conditions: resazurin; for IC90: Staphylococcus aureus, ATCC29213, Staphylococcus aureus ATCC 29213, broth microdilution, read-out: STA (361.159) IC90
Method: (§1) The following bacteria were used: Staphylococcus aureus ATCC 29213, methicillin-resistant Staphylococcus aureus (MRSA) ATCC 700788 and Escherichia coli ATCC 35218. The bacteria used in this study were grown overnight in flasks containing 100 ml Mueller-Hinton broth (Difco cat. nr. 0757-17) in sterile de-ionized water, with shaking, at 37° C. Stocks were store at −70° C. until use.
(§2) Bacteria were incubated on a tryptic soy agar plate containing 5% sheep blood (Becton Dickinson cat. nr. 254053) for 18-24 hours at 35° C. in aerobic conditions (first passage). For the second passage, fresh Mueller-Hinton broth is inoculated with 5-10 colonies and grown overnight at 35° C. until turbidity (reaching log-phase) in aerobic conditions is reached. The bacterial suspension is then adjusted to 0.5 McFarland density and further diluted 1:100 in Mueller Hinton broth medium. This is used as inoculum.
The result(s) are depicted the table below (for STA ATCC 29213).
(§3) MIC assays were performed by the broth microdilution method in a 96-well format (flat-bottom microtitre plates) with a final volume of 0.1 ml Mueller Hinton broth containing two-fold serial dilutions of compounds and inoculated with 5×10^5 CFU/ml of bacteria (standard inoculum size according to CLSI guidelines). Inhibitors are typically varied over the range of 63 to 0.49 μM. The final DMSO concentration in the assay was 1.25% (maximum tolerable DMSO concentration=6%). In the assays where the effect of human serum on the activity of the compounds against S. aureus was tested, human serum was added at a final concentration of 10%. The plates were incubated at 35° C. for 16-20 hours. At the end of incubation the bacterial growth was quantified fluorometrically. For this, resazurin was added to all wells and the plates were re-incubated. The incubation time is dependent on the type of bacteria. A change in color from blue to pink indicated the growth of bacteria. The fluorescence was read in computer-controlled fluorometer (Fluoroskan Ascent FL, Labsystems) at an excitation wavelength 540 nm and an emission wavelength of 590 nm. The % growth inhibition achieved by the compounds was calculated according to standard methods. The IC90 (expressed in μg/ml) was defined as the 90% inhibitory concentration for bacterial growth. A panel of reference compounds were simultaneously tested for QC approval.

S. aureus = assay: Antibacterial susceptibility testing, IC90 determination with 10% human serum (STA + 10% HS); assay type: cell-based, Staphylococcus aureus; conditions: Staphylococcus aureus, human serum at final concentration of 10%, read-out: STA + 10% HS (361.169) IC90
Method: as §1, §2, §3
The results are depicted in the table(s) below (STA+10% HS).

SMILES | CC50 at 72 h [1] | IC50 [2] | IC90 [3] | IC90 (S. aureus) | melting point | STA (361.159) IC90 ([3]; Staphylococcus aureus ATCC 29213, broth microdilution)
O=C1CNCc2cc(/C=C/C(=O)N3C[C@H]4CC(c5ccccc5)=C[C@H]4C3)cnc2N1 (single isomer, unassigned) [compound 46] | > 4.05 µg/mL | 0.924 µM | 0.23 µg/mL (≈ 0.574 µM) | 0.27 µg/mL | – | –
O=C1Nc2ncc(/C=C/C(=O)N3CC4C=C(c5ccccc5)CC4C3)cc2Cn2cncc21 (stereo not shown) [Compound K11] | – | – | – | – | 220 to 270 °C | –
COc1cncc(C(=O)Nc2ccc(/C=C/C(=O)N3CC4C=C(c5ccccc5)CC4C3)cn2)c1 (stereo not shown) [Cpd. No. 7] | > 11.7 µg/mL | 2.4 µM | < 0.22 µg/mL | 0.42 µg/mL | – | –
Cc1cc(N)ncc1/C=C/C(=O)N1CC2C=C(c3ccccc3)CC2C1 (stereo not shown) [compound 20] | 4.55 µg/mL (≈ 13.2 µM) | 8.31 µM | > 21.8 µg/mL | > 21.8 µg/mL | – | –
Cc1nc(N)ccc1/C=C/C(=O)N1CC2C=C(c3ccccc3)CC2C1 (stereo not shown) [compound 21] | 3.11 µg/mL (≈ 9 µM) | 6.77 µM | > 21.8 µg/mL | > 21.8 µg/mL | – | –
N#Cc1cc(N)ncc1/C=C/C(=O)N1CC2C=C(c3ccccc3)CC2C1 (stereo not shown) [compound 22] | > 8.95 µg/mL | ~33.9 µM | > 22.5 µg/mL | > 22.5 µg/mL | – | –
COc1nc(NC(C)=O)ccc1/C=C/C(=O)N1CC2C=C(c3ccccc3)CC2C1 (stereo not shown) [compound 23] | > 10.1 µg/mL | 15.5 µM | > 25.5 µg/mL | > 25.5 µg/mL | – | –
O=C(Nc1ccc(/C=C/C(=O)N2CC3C=C(c4ccccc4)CC3C2)cn1)c1ccccn1 (stereo not shown) [compound 24] | 7.76 µg/mL (≈ 17.8 µM) | 3.46 µM | > 27.5 µg/mL | > 27.5 µg/mL | – | –
Cc1nc(NC(=O)c2cccnc2)ccc1/C=C/C(=O)N1CC2C=C(c3ccccc3)CC2C1 (stereo not shown) [compound 25] | > 11.3 µg/mL | 14.4 µM | > 28.4 µg/mL | > 28.4 µg/mL | – | –
Cc1cc(NC(=O)c2cccnc2)ncc1/C=C/C(=O)N1CC2C=C(c3ccccc3)CC2C1 (stereo not shown) [compound 26] | > 11.3 µg/mL | 10.2 µM | > 28.4 µg/mL | > 28.4 µg/mL | – | –
N#Cc1cc(NC(=O)c2cccnc2)ncc1/C=C/C(=O)N1CC2C=C(c3ccccc3)CC2C1 (stereo not shown) [compound 27] | > 11.6 µg/mL | 20.9 µM | > 29.1 µg/mL | > 29.1 µg/mL | – | –
COc1ccc(C(=O)Nc2ccc(/C=C/C(=O)N3CC4C=C(c5ccccc5)CC4C3)cn2)c(OC)n1 (stereo not shown) [compound 28] | 2.99 µg/mL (≈ 6.02 µM) | 14.8 µM | > 31.3 µg/mL | > 31.3 µg/mL | – | –
O=C(Nc1ccc(/C=C/C(=O)N2CC3C=C(c4ccccc4)CC3C2)cn1)c1cc(F)c(Cl)nc1Cl (stereo not shown) [compound 29] | 2.34 µg/mL (≈ 4.47 µM) | 9.32 µM | > 33 µg/mL | > 33 µg/mL | – | –
O=C(Nc1ncc(/C=C/C(=O)N2CC3C=C(c4ccccc4)CC3C2)cc1CN1CCOCC1)c1cccnc1 (stereo not shown) [compound 34] | 12.6 µg/mL (≈ 23.4 µM) | 2.95 µM | > 33.8 µg/mL | > 33.8 µg/mL | – | –
O=C1CNCc2cc(/C=C/C(=O)N3CC4C=C(c5ccsc5)CC4C3)cnc2N1 (stereo not shown) [compound 40] | > 10.2 µg/mL | 0.959 µM | < 0.19 µg/mL | < 0.19 µg/mL | – | –
CC1(C)Oc2cc(/C=C/C(=O)N3CC4C=C(c5ccccc5)CC4C3)cnc2NC1=O (stereo not shown) [compound 42] | – | – | < 0.2 µg/mL | < 0.2 µg/mL | – | –
CC1(C)Oc2cc(/C=C/C(=O)N3CC4C=C(c5ccccc5)CC4C3)cnc2NC1=O (stereo not shown) [compound 43] | – | – | – | – | – | <0.20 µg/mL
CC1(C)Oc2cc(/C=C/C(=O)N3CC4C=C(c5nccs5)CC4C3)cnc2NC1=O (stereo not shown) [compound 44] | – | – | < 0.2 µg/mL | < 0.2 µg/mL | – | –
Cn1nccc1C1=CC2CN(C(=O)/C=C/c3cnc4c(c3)OC(C)(C)C(=O)N4)CC2C1 (stereo not shown) [compound 45] | – | – | < 0.2 µg/mL | < 0.2 µg/mL | – | –
C=CCN1C[C@@H]2CN(C(=O)/C=C/c3cnc4c(c3)CN(C)CC(=O)N4)C[C@@H]2C1 [compound 61] | > 9.58 µg/mL | > 50.1 µM | > 24.1 µg/mL | > 24.1 µg/mL | – | –
CN1CC(=O)Nc2ncc(/C=C/C(=O)N3C[C@@H]4CN(c5cccnc5)C[C@@H]4C3)cc2C1 [compound 62] | > 10.5 µg/mL | 7.41 µM | > 26.4 µg/mL | > 26.4 µg/mL | – | –
O=C1Nc2ncc(/C=C/C(=O)N3CC4C=C(c5ccccc5)CC4C3)cc2Cn2cncc21 (stereo not shown) [compound 71] | 6.78 µg/mL (≈ 15.5 µM) | 1.1 µM | < 0.21 µg/mL | < 0.21 µg/mL | – | –
CC(=O)N1CCN2Cc3cc(/C=C/C(=O)N4CC5C=C(c6ccncc6)CC5C4)cnc3NC(=O)C2C1 (stereo not shown) [compound 84] | > 12.5 µg/mL | 1.34 µM | 0.92 µg/mL (≈ 1.85 µM) | 0.87 µg/mL | – | –
O=C1Nc2ncc(/C=C/C(=O)N3CC4C=C(c5ccccc5)CC4C3)cc2Cn2nccc21 (stereo not shown) [compound 86] | – | 1.83 µM | 3.47 µg/mL (≈ 7.93 µM) | 3.81 µg/mL | – | –
O=C1Nc2ncc(/C=C/C(=O)N3C[C@@H]4CN(c5ccccc5)C[C@@H]4C3)cc2CN2CCOCC12 (stereo partly shown) [compound 87] | – | – | – | – | > 250 °C | –
CCOC(=O)N1CCN2Cc3cc(/C=C/C(=O)N4CC5C=C(c6ccccc6)CC5C4)cnc3NC(=O)C2C1 (stereo not shown) [compound 88] | – | – | – | – | 242 to 267 °C | –

— patent publication US9315522B2, “Antibacterial compounds” (JANSSEN SCIENCES IRELAND UC, priority 2012, dated 2016)
